Assays:
[1] = target: T1, UGT2B4 (Homo sapiens, UniProt P06133); experiment: Inhibition of recombinant UGT-catalyzed 4-MU glucuronidation; format: biochemical; conditions: pH 7.4, probe 4-methylumbelliferone (4-MU), 1000 μM, 100 μM compound, 4-MU probe substrate, negative = activation
T1 construct: purchased BD Gentest Corp. (Woburn, MA, USA); host or cells: baculovirus-infected insect cells
T1 sequence (P06133 24-528): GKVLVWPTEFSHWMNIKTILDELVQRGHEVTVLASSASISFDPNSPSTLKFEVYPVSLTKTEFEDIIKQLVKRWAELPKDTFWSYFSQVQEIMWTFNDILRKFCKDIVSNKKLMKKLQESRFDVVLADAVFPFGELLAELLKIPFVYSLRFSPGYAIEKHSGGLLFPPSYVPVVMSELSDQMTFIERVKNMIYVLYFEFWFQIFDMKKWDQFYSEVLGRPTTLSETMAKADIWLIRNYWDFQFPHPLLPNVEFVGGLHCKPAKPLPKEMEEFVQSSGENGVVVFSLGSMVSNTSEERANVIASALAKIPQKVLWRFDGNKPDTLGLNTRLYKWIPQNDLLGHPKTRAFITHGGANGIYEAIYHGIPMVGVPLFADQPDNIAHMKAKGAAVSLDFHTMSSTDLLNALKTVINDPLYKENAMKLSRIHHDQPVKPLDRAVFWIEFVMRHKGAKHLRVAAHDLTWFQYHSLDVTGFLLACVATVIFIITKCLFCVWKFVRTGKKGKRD

[2] = target: T2, UGT1A3 (Homo sapiens, UniProt P35503); experiment: as above; format: biochemical; conditions: for inhibition at 120 min, 100 µM: human, pH 7.4, probe 4-methylumbelliferone (4-MU), 1200 μM, 100 μM compound, 4-MU probe substrate, negative = activation
T2 construct: purchased BD Gentest Corp. (Woburn, MA, USA); host or cells: baculovirus-infected insect cells
T2 sequence (P35503 29-534): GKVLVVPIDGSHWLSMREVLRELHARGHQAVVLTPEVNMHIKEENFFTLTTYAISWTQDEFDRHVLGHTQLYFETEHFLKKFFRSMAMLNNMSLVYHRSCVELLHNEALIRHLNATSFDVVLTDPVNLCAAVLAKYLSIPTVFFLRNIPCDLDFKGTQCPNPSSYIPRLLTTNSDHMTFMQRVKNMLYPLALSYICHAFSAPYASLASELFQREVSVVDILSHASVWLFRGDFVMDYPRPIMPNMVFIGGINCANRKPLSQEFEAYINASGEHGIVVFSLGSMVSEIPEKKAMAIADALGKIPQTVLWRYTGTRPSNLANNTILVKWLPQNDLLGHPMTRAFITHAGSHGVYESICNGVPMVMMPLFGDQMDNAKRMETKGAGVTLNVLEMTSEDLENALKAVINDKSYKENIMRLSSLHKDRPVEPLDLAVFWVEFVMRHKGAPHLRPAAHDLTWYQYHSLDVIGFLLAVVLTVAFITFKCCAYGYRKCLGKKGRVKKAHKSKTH

Compound	inhibition at 120 min, 100 µM [1] [%]	inhibition at 120 min, 100 µM [2] [%]	IC50 ([2]; 4-MU glucuronidation, Probit analysis, read-out: IC50 towards UGT1A3) [µM]	inhibition type towards UGT1A3 ([2]; Dixon plot and Lineweaver-Burk plot)	Ki ([2]; second plot of Lineweaver-Burk slopes, read-out: inhibition constant (Ki) towards UGT1A3) [µM]
O=c1c2cc(O)c(O)cc2oc2cc(O)c([C@@H]3O[C@H](CO)[C@@H](O)[C@H](O)[C@H]3O)c(O)c12 [MGF, 1,3,6,7-tetrahydroxyxanthone-C-2-β-D-glucoside]	-61.9	-16			
O=c1c2cc(O)c(O)cc2oc2cc(O)cc(O)c12 [NTR, 1,3,6,7-tetrahydroxyxanthone]	-5.5	87.6	8.2	competitively inhibited	1.6
